The target in this test is T1, curli (native curli fibers; monomeric unit CsgA) (Escherichia coli, UniProt P28307).
T1 construct: native curli amyloid fibers isolated from E. coli MC4100; mature secreted CsgA (signal peptide removed); 13 kDa monomeric unit; fiber polymer
Kind of test: depletion (centrifugation) assay, absorbance of free dye at […] nm, saturation fit. The format is binding.

T1 sequence (P28307 21-151): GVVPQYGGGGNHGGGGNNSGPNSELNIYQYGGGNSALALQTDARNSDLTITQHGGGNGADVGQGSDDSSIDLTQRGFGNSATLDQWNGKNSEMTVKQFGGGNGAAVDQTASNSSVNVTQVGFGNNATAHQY

Broadly, the Kd is a measure of binding affinity in units of concentration. Low values mean a tighter complex, high ones a looser complex. In turn, `O=C(O)c1cc(/C=C/c2ccc(/C=C/c3ccc(O)c(C(=O)O)c3)c(F)c2)ccc1O` [FSB, (E,E)-1-fluoro-2,5-bis(3-hydroxycarbonyl-4-hydroxy) styrylbenzene] gave a Kd of 7.9 µM.

These data come from paper PMC6117054, “The Congo red derivative FSB binds to curli amyloid fibers and specifically stains curliated E. coli” (PLoS ONE, 2018).
